The target in the first test is T1, Human glucocorticoid receptors (Homo sapiens, UniProt P04150).
T1 construct: made in house; host or cells: Sf9 insect cells, recombinant baculovirus (BAC-TO-BAC)
T1 sequence (P04150 1-777): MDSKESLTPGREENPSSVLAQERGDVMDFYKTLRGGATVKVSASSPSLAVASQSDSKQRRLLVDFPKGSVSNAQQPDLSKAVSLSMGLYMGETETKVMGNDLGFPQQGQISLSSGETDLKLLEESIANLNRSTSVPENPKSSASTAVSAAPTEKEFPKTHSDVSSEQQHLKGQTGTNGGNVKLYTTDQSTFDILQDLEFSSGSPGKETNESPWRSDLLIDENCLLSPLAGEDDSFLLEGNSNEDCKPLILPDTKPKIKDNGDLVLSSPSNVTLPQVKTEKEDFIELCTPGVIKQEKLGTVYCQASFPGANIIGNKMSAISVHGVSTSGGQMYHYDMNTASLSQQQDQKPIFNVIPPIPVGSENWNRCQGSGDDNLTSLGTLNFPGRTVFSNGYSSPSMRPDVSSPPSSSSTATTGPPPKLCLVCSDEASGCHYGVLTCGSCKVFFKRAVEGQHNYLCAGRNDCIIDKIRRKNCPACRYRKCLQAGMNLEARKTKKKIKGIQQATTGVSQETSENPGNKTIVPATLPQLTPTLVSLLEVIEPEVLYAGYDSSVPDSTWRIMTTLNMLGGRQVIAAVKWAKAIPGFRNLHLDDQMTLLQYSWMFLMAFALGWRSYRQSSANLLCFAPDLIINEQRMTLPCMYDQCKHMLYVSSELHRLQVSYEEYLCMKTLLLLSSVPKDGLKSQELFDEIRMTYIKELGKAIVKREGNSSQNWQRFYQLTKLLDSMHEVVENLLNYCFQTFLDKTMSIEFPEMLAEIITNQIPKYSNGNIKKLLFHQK
In words: Radioligand filter binding assay, displacement of 3(H)-dexamethasone from human glucocorticoid receptor cytosol. Particulars: 1.7 μM test compound; inhibition of 3(H)-dex binding to hGR; read-out: GR BINDING (% Inhibition @ 1.7 μM).
Protocol: Dexamethasone hereafter referred to as dex was purchased from SIGMA. […] Human glucocorticoid receptors were extracted from Sf9 cells infected with a recombinant baculovirus transfer vector containing the cloned hGR genes. […] The recombinant baculovi, uses expressing hGR were amplified and used to infect Sf9 cells. Infected cells were harvested 48 hrs post infection. […] The concentration of hGR in the extract was measured as specific ^3(H)-dex binding with the G25-assay as described in J. Steroid Biochem. Molec. […] The extract was aliquoted and stored at −70° C.
The filter binding assay: Dilution series of the test compounds and dex as reference were made from 10 mM (1 mM dex) stock solutions in DMSO. 10 μl of the dilutions was added in duplicates to the wells. The cell extracts were diluted 10 fold in EPMo +MTG buffer (1 mM EDTA, HPO4 20 mM (pH8), 6 mM MTG). […] 110 μl of the diluted ^3(H)-dex were added to the wells. The final concentration of hGR in the experiment was estimated to 1 nM. All preparations were made in ambient temperature (20-25° C.) on ice and with +4° C. temperated buffers. The plates were incubated over night at +4° C. (15-20hrs).
The incubation was stopped by filtration through GF/B filter on the Tomtec Cellharvester. The filtration on the Tomtec Cellharvester was programmed as follows: 1) Preparation before filtration with EP buffer (1 mM EDTA 20 mM HPO4 (pH8)) 2×(Wash/Asp 0.6 sec., Asp 0.5 sec.); 2) Prewet of GF/B filter with EP+PEI buffer (EP buffer, 0.3% Polyesthylenimine) (Asp 0.8 sec.). 3) Filtration/harvesting of the 96-well incubation plate 3×(Wash/Asp 0.6 sec., Asp 0.5 sec.). The GF/B filter was dried for at least 1 hr at 65° C. A MeltiLex scintillation wax was melted onto the filter with the Microsealer. The filter was placed in a samplebag, which was thereafter trimmed with scissors to fit the filter cassette. The cassette were placed in the Microbeta and measured for 1 min/position, returning ccpm (conrected counts per minute).
The Microbeta-instrument generates the mean cpm (counts per minute) value/minute and corrects for individual variations between the detectors thus generating corrected cpm values.
Broadly, the inhibition is the drop in the measured response relative to a control, in per cent. On to `COc1cccc2c1-c1ccc(NS(C)(=O)=O)cc1C(Cc1cc(F)cc(F)c1)O2` (stereo not shown) [Example 85, N-[6-(3,5-difluorobenzyl)-1-methoxy-6H-benzo[c]chromen-8-yl]methanesulfonamide], for which the inhibition at 1.7 µM was found to be 81.6%.

Regarding `CCCN(C)c1ccc(C2Oc3cccc(OC(F)F)c3-c3ccc(N)c(Br)c32)cc1` (stereo not shown) [Example 29, (1-difluoromethoxy-6-(4-(N-propyl-N-methylamino)phenyl)-7-bromo-6H-dibenzo(b,d)pyran-8-yl)-amine], the inhibition at 1.7 µM worked out at 55%.

`CC#Cc1cccc2c1-c1ccc(NS(C)(=O)=O)cc1C(c1ccccc1)O2` (racemic) [Example 39]: the inhibition at 1.7 µM worked out at 90.6%.

`COc1cccc2c1-c1ccc(NS(C)(=O)=O)cc1C(c1cccc(-c3ccc(C(=O)O)cc3)c1)O2` (stereo not shown) [Example 122, 3′-{1-methoxy-8-[(methylsulfonyl)amino]-6H-benzo[c]chromen-6-yl}[1,1′-biphenyl]-4-carboxylic acid]: the inhibition at 1.7 µM was determined as 63.8%.

Consider `C=Cc1cccc2c1-c1ccc(NS(C)(=O)=O)cc1C(c1ccccc1)O2` (racemic) [Example 37], for which the inhibition at 1.7 µM was determined as 94.8%.

With `COc1cc(C)cc2c1-c1ccc(NS(C)(=O)=O)cc1C(c1ccccc1)O2` (stereo not shown) [Example 67, (1-methoxy-3-methyl-6-phenyl-6H-dibenzo(b,d)pyran-8-yl)methanesulfonamide], the inhibition at 1.7 µM turned out to be 49.3%.

Take `COc1cccc2c1-c1ccc(NS(=O)(=O)/C=C/c3ccccc3)cc1C(c1ccccc1)O2` (stereo not shown) [Example 11, (1-methoxy-6-phenyl-6H-dibenzo(b,d)pyran-8-yl)-(2-phenyl-E-ethenyl) sulfonamide]: the inhibition at 1.7 µM was determined as 57.8%.

Another test addresses T2, progesterone receptor (PR) (Homo sapiens, UniProt P06401).
T2 sequence (P06401 1-933): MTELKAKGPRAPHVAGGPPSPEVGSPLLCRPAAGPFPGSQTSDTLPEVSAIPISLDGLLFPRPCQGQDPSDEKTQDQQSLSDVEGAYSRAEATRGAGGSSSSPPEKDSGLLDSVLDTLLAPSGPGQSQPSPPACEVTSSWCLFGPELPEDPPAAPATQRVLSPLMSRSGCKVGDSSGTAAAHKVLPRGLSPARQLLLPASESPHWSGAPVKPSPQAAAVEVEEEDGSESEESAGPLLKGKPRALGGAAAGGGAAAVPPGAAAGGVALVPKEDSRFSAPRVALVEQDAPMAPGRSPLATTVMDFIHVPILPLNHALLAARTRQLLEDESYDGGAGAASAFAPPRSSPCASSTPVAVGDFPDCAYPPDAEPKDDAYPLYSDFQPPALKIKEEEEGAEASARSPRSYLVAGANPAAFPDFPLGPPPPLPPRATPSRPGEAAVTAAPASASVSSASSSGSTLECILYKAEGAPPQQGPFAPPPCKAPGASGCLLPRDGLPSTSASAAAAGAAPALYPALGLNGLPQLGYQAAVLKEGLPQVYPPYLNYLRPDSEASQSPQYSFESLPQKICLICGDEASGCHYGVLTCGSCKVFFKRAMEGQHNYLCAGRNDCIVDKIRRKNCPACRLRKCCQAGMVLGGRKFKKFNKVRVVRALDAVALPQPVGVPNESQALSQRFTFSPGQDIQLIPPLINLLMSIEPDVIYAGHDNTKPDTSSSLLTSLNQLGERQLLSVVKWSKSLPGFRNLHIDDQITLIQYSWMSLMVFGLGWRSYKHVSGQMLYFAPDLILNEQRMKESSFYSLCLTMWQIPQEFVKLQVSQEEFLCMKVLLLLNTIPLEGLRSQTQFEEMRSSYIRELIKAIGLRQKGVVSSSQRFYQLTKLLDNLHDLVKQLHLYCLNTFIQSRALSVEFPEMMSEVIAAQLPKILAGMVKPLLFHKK
In words: Radioligand binding assay with progesterone receptor cytosol (similar protocol).
Details: not given
The text has this: Methods for Radioligand Binding Studies with Human Glucocorticoid and Progesterone Receptor Cytosol
A similar protocol was employed to measure affinity of the compounds of the present invention for progesterone receptor (PR).
One may read the IC50 as the concentration at which inhibition is half-maximal. Read a low IC50 as inhibition by little substance. `CCOC(=O)c1cccc(C2Oc3cccc(OC(F)F)c3-c3ccc(NS(C)(=O)=O)cc32)c1` (stereo not shown) [Example 114, ethyl 3-{1-(difluoromethoxy)-8-[(methylsulfonyl)amino]-6H-benzo[c]chromen-6-yl}benzoate] came in with an IC50 of 0.29 µM.

`COc1cccc2c1-c1ccc(NS(C)(=O)=O)cc1C(c1cccc(/C=C/c3ccccc3)c1)O2` (stereo not shown) [Example 99, N-(1-methoxy-6-{3-[(E)-2-phenylethenyl]phenyl}-6H-benzo[c]chromen-8-yl)methanesulfonamide] showed an IC50 of over 1 µM.

The compound `COCCCc1cccc(C2Oc3cccc(OC(F)F)c3-c3ccc(NS(C)(=O)=O)cc32)c1` (stereo not shown) [Example 117, N-{1-(difluoromethoxy)-6-[3-(3-methoxypropyl)phenyl]-6H-benzo[c]chromen-8-yl}methanesulfonamide] came in with an IC50 of 0.43 µM. In other words, the sub-micromolar range.

`COc1ccc(Br)c2c1-c1ccc(NS(C)(=O)=O)cc1C(c1ccccc1)O2` (stereo not shown) [Example 154, N-(4-bromo-1-methoxy-6-phenyl-6H-benzo[c]chromen-8-yl)methanesulfonamide]: the IC50 is 0.68 µM.

The compound `CNc1cccc(C2Oc3cccc(OC)c3-c3ccc(NS(C)(=O)=O)cc32)c1` (stereo not shown) [Example 81, N-{1-methoxy-6-[3-(methylamino)phenyl]-6H-benzo[c]chromen-8-yl}methanesulfonamide] displayed a concentration for half-maximal inhibition (IC50) of 9.36 µM.

In turn, `C=Cc1c(NS(C)(=O)=O)ccc2c1C(c1cccc(C(F)(F)F)c1)Oc1cccc(OC)c1-2` (stereo not shown) [Example 3, (1-methoxy-6-(3-trifluoromethyl)phenyl-7-vinyl-6H-dibenzo(b,d)pyran-8-yl)methanesulfonamide] yielded an IC50 of over 10 µM.

On to “(1-ethoxy-6-phenyl-6H-dibenzo(b,d)pyran-8-yl)methanesulfonamide [Example 44]”, for which the IC50 was determined as 6.9 µM.

Regarding `COc1cccc2c1-c1ccc(NS(C)(=O)=O)cc1C(c1cccc(Br)c1)O2` (stereo not shown) [Example 82, N-[6-(3-bromophenyl)-1-methoxy-6H-benzo[c]chromen-8-yl]methanesulfonamide], the IC50 came to 0.3 µM.

As to `COc1cccc2c1-c1ccc(NS(C)(=O)=O)cc1C(c1cccc(-c3ccc(O)cc3)c1)O2` (stereo not shown) [Example 128, N-[6-(4′-hydroxy[1,1′-biphenyl]-3-yl)-1-methoxy-6H-benzo[c]chromen-8-yl]methanesulfonamide], the IC50 stood at 0.88 µM. This IC50 lies about 2.9-fold higher than the previous one.

`COc1cccc2c1-c1ccc(NS(C)(=O)=O)cc1C(c1cccc(N(C)S(C)(=O)=O)c1)O2` (stereo not shown) [Example 83, N-(1-methoxy-6-{3-[methyl(methylsulfonyl)amino]phenyl}-6H-benzo[c]chromen-8-yl)methanesulfonamide] came in with an IC50 of 3.63 µM.

Consider `O=S(=O)(Nc1ccc2c(c1)C(c1ccccc1)Oc1cccc(OC(F)F)c1-2)c1cccs1` (stereo not shown) [Example 26, N-(1-difluoromethoxy-6-phenyl-6H-dibenzo[b,d]pyran-8-yl)-thiophene-2-sulfonamide], for which the IC50 worked out at 0.029 µM. This IC50 lies about 130-fold lower than the previous one.

The compound `COc1cccc2c1-c1ccc(NS(C)(=O)=O)cc1C(c1cccc(-c3ccc(N(C)C)cc3)c1)O2` (stereo not shown) [Example 133, N-{6-[4′-(dimethylamino)[1,1′-biphenyl]-3-yl]-1-methoxy-6H-benzo[c]chromen-8-yl}methanesulfonamide] registered an IC50 of over 10 µM.

Consider `COc1cccc2c1-c1ccc(NS(C)(=O)=O)cc1C(c1cccc(-c3ccc(Cl)cc3)c1)O2` (stereo not shown) [Example 126, N-[6-(4′-chloro[1,1′-biphenyl]-3-yl)-1-methoxy-6H-benzo[c]chromen-8-yl]methanesulfonamide], for which the IC50 was over 10 µM.

For the compound `C=CCOc1ccc(C2Oc3cccc(OC)c3-c3ccc(NS(C)(=O)=O)cc32)cc1` (stereo not shown) [Example 32, (1methoxy-6-(4-allyloxy)phenyl-6H-dibenzo(b,d)pyran-8-yl)-methanesulfonamide], the IC50 is over 10 µM.

Compound `COc1cccc2c1-c1ccc(NS(C)(=O)=O)cc1C(c1ccc(C#CCCCO)s1)O2` (stereo not shown) [Example 102, N-{6-[5-(5-hydroxy-1-pentynyl)-2-thienyl]-1-methoxy-6H-benzo[c]chromen-8-yl}methanesulfonamide] had an IC50 of over 1 µM.

On to `COc1cccc2c1-c1ccc(NS(C)(=O)=O)cc1C(c1ccsc1)O2` (stereo not shown) [Example 97, N-[1-methoxy-6-(3-thienyl)-6H-benzo[c]chromen-8-yl]methanesulfonamide], for which the IC50 stood at 0.18 µM.

Take `CS(=O)(=O)Nc1ccc2c(c1)C(c1ccc(Br)s1)Oc1cccc(OC(F)F)c1-2` (stereo not shown) [Example 96, N-{6-(5-bromo-2-thienyl)-1-(difluoromethoxy)-6H-benzo[c]chromen-8-yl}methanesulfonamide]: the IC50 is 0.12 µM.

The compound `COCC#Cc1ccc(C2Oc3cccc(OC)c3-c3ccc(NS(C)(=O)=O)cc32)s1` (stereo not shown) [Example 92, N-{1-methoxy-6-[5-(3-methoxy-1-propynyl)-2-thienyl]-6H-benzo[c]chromen-8-yl}methanesulfonamide] registered an IC50 of 0.051 µM.

In turn, `CS(=O)(=O)Nc1ccc2c(c1)C(c1cccc(CCCCc3ccccc3)c1)Oc1cccc(OC(F)F)c1-2` (stereo not shown) [Example 136, N-{1-(difluoromethoxy)-6-[3-(4-phenylbutyl)phenyl]-6H-benzo[c]chromen-8-yl}methanesulfonamide] showed an IC50 of over 10 µM.

Turning to `COc1cccc2c1-c1ccc(NS(C)(=O)=O)cc1C(c1ccccc1)O2` (stereo not shown) [Example 5, N-(1-methoxy-6-phenyl-6H-dibenzo[b,d]pyran-8-yl)methanesulfonamide], the IC50 is 3.35 µM.

The compound `COc1ccc(-c2cccc(C3Oc4cccc(OC(F)F)c4-c4ccc(NS(C)(=O)=O)cc43)c2)cc1` (stereo not shown) [Example 145, N-[1-(difluoromethoxy)-6-(4′-methoxy[1,1′-biphenyl]-3-yl)-6H-benzo[c]chromen-8-yl]methanesulfonamide] registered an IC50 of 0.39 µM. This IC50 lies about 8.6-fold lower than the previous one.

These data come from US6593480B2 (Abbott Laboratories, priority 1999, dated 2003).
